Results on 39 compounds are retold here after patent publication US4190666A, “Anti-inflammatory 4,5-diarly-2-(substituted-thio)imidazoles and their corresponding sulfoxides and sulfones” (E. I. Du Pont de Nemours and Company, priority 1978, dated 1980).

The subject of assay [1] is phenylquinone writhing syndrome. The assay can be described thus: Phenylquinone writhing test (analgesic activity). It is filed as in vivo, female white mice. The settings on record: oral; for ED50: Mus musculus, 1% methylcellulose, Tables VIII and IX, read-out: ED50 (effective analgesic dose for 50% of the mice); for peak time: time of peak action. As to the method:
Phenylquinone Writhing Test A standard procedure for detecting and comparing the analgesic activity of compounds in this series for which there is good correlation with human efficacy is the standard phenylquinone writhing test modified from Siegmund, et al., Proc. Soc. Exp. Biol. Med. 95, 729 (1957). […] Aqueous (0.01% phenyl-p-benzoquinone) phenylquinone was injected intraperitoneally at 24 minutes later using 0.20 ml per mouse. […] The effective analgesic dose for 50% of the mice (ED50) was calculated by the moving average method of Thompson, W. R., Bact. Rev. 11, 115-145 (1947); also time of peak action was determined for many of the compounds.
For orientation: An intraperitoneal irritant provokes the stretching counted in writhing tests.

For assay [2], the system named is established adjuvant-induced arthritis in rats. The assay can be described thus: Established adjuvant-induced arthritis in rats (therapeutic, paw volume). Particulars: for ED50: Rattus norvegicus, po, established arthritis, 7 daily doses, ED50% decrease from control paw volume, Tables I-III, read-out: Adjuvant Arthritis (ED50%); for percent (%) reduction in paw volume measured at the indicated dose: oral. It is filed as in vivo, Charles River Lewis male rats.

Assay [3] deals with plaque forming (antibody producing) spleen cells of rats with adjuvant-induced arthritis. As to the kind of experiment: Modified Jerne spleen cell hemolytic plaque assay. It is filed as in vivo, rats (Charles River Lewis). As to the method:
MODIFIED JERNE SPLEEN CELL HEMOLYTIC PLAQUE ASSAY
A modification of the technique described by N. K. Jerne and A. A. Nordin (Science, 140, 450, 1963) was used in these studies. Rats (Charles River Lewis) with adjuvant-induced arthritis (and non-arthritic controls) were dosed orally ounce per day with PVA-Acacia vehicle* or compounds in vehicle from day 14 (following adjuvant injection) to day 20. The animals were sensitized with sheep red blood cells (SRBC) (0.2 ml of a 10% suspension=[…]) I.V. on day 17. The SRBC (Microbiological Associates) were washed 3 times in 0.9% sodium chloride solution prior to injection. On day 21 the rats were anesthetized with 1% sodium pentobarbital I.P. and the spleens were removed. Each spleen was placed on a stainless steel screen suspended over a plastic beaker in an ice bath and gently macerated with a glass syringe plunger. The cells were washed through the mesh into the beaker using a pasteur pipette to apply about 10 ml of Eagle's Minimal Essential Medium (MEM) during the maceration process until only fibrous material remained on the screen. Large particles were allowed to settle out for about 5 minutes and about 5 ml of supernatant was transferred to a plastic tube. Dilutions of 1:10 and 1:20 were made in cold MEM.
Plating: 2 ml of 0.7% Agarose (1.4% diluted 1:2 with 2X Eagles MEM) and 0.2 ml of a 10% SRBC suspension were pre-warmed in a 45° C. water bath. 20 Lambda of spleen cell dilution were added, mixed gently and poured into a supporting layer of 2 ml of 1.4% Agarose in a 60×15 mm plastic petri plate. Plates were incubated at 37° C. for 1.5 hours in a humidified incubator. 1.5 ml of guinea pig complement (diluted 1:10 with MEM) was added and incubation was continued for 1 hour longer.
Zones of hemolysis (plaques) per plate were counted without magnification against a diffuse light source. Assuming each plaque to have resulted from hemolysin produced by a single spleen cell, the number of plaque forming cells (PFC) per million spleen cells was calculated for each dilution. The statistical calculations (mean, standard error and "t" test) included the PFC/million count for each dilution of each spleen.

The subject of assay [4] is B lymphocytes in spleen cell suspensions.

One may read the ED50 as the dose at which the effect has come halfway, by size or by number of responders.

Structures are written as SMILES. Read-outs that look alike come from different tables or passages of the source.

For the compound `CCOc1ccc(-c2[nH]c(S(=O)(=O)C(F)(F)C(F)F)nc2-c2ccccc2)cc1` [Example 142], in assay [1], the median effective dose (ED50) was found to be 0.95 mg/kg and the peak time amounted to 120 min. In assay [2], the ED50 came to 1.5 mg/kg.

On to `COc1ccc(-c2[nH]c(S(=O)(=O)C(F)(F)C(F)F)nc2-c2ccccc2Cl)cc1` [Example 83], for which, in assay [1], the ED50 came out at 0.56 mg/kg and the peak time is 60 min. Besides, the median effective dose (ED50) in assay [2] was 7.2 mg/kg.

Take `COc1ccc(-c2nc([S+]([O-])CC(F)(F)F)[nH]c2-c2ccc(OC)cc2)cc1` (centres unmarked) [Example 5, 4,5-bis(4-Methoxyphenyl)-2-(2,2,2-trifluoroethylsulfinyl)-imidazole]: in assay [1], the 50% effective dose (ED50) amounted to 0.86 mg/kg and the peak time was found to be 60 min. In assay [2], the 50% effective dose (ED50) was found to be 10 mg/kg.

For `COc1ccc(-c2nc([S+]([O-])C(F)(F)C(F)F)[nH]c2-c2ccc(OC)cc2)cc1` (centres unmarked) [Example 65], the ED50 in assay [1] was determined as 0.8 mg/kg; in assay [2] it was 2.4 mg/kg.

Turning to `COc1ccc(-c2[nH]c(S(=O)(=O)C(F)(F)C(F)F)nc2-c2ccc(F)cc2)cc1` [Example 133], the ED50 in assay [1] was 0.27 mg/kg; in assay [2] it was 2.2 mg/kg.

Regarding `COc1ccc(-c2nc(SCC(F)(F)F)[nH]c2-c2ccc(OC)cc2)cc1` [Example 4, 4,5-bis-(4-Methoxyphenyl)-2-(2,2,2-trifluoroethylthio)imidazole], in assay [1], the ED50 amounted to 1.2 mg/kg and the peak time is on record as 240 min. Further, the median effective dose (ED50) in assay [2] amounted to 20 mg/kg.

Regarding `COc1ccc(-c2nc(S(=O)(=O)C(F)(F)C(F)F)[nH]c2-c2ccccc2)cc1` [Example 82], in assay [1], the 50% effective dose (ED50) was determined as 0.33 mg/kg and the peak time is 240 min. Moreover, the ED50 in assay [2] came to 1.1 mg/kg.

In the case of `O=S(=O)(c1nc(-c2ccc(Cl)cc2)c(-c2ccccc2)[nH]1)C(F)(F)C(F)F` [Example 86, 4(or 5)-(4-chlorophenyl)-5(or 4)-phenyl-2-(1,1,2,2-tetrafluoroethylsulfonyl)imidazole], the median effective dose (ED50) in assay [2] came out at 0.065 mg/kg. Besides, the “mean plaque forming cells per million spleen cells (N = 20)” value is listed as 412 cells per million spleen cells in assay [3] (daily oral dose 0.07 mg/kg) and 367 cells per million spleen cells in assay [3] (daily oral dose 0.7 mg/kg). Further, the figures for the “mean % B cells” value in assay [4] (daily oral dose 0.1 mg/kg) and in assay [4] (daily oral dose 1.0 mg/kg) were 48% and 42%, respectively.

In the case of `COc1ccc(-c2nc(S(=O)(=O)C(F)F)[nH]c2-c2ccc(OC)cc2)cc1` [Example 74], the figures for the 50% effective dose (ED50) in assay [1] and in assay [2] were 1.5 mg/kg and 0.5 mg/kg, respectively.

As for `COc1ccc(-c2nc(S(=O)(=O)C(F)(F)F)[nH]c2-c2ccc(OC)cc2)cc1` [Example 127, 4,5-bis(4-methoxyphenyl)-2-(trifluoromethylsulfonyl)imidazole], the values for the ED50 in assay [1] and in assay [2] were 0.045 mg/kg and 0.33 mg/kg, respectively. Moreover, the peak time in assay [1] was determined as 240 min.

Turning to `COc1ccc(-c2nc(S(=O)(=O)CC(F)(F)F)[nH]c2-c2ccc(OC)cc2)cc1` [Example 6, 4,5-bis(4-Methoxyphenyl)-2-(2,2,2-trifluoroethylsulfonyl)-imidazole], in assay [1], the ED50 came out at 0.58 mg/kg and the peak time came out at 60 min. Moreover, the 50% effective dose (ED50) in assay [2] came out at 3.8 mg/kg.

Turning to `COc1ccc(-c2nc(S(=O)(=O)C(F)(F)CF)[nH]c2-c2ccc(OC)cc2)cc1` [Example 125, 4,5-bis(4-methoxyphenyl)-2-(1,1,2-trifluoroethylsulfonyl)imidazole], in assay [1], the ED50 turned out to be 0.25 mg/kg and the peak time is reported as 160 min. Moreover, in assay [2], the 50% effective dose (ED50) was determined as 5 mg/kg.

With `FC(F)Sc1nc(-c2ccccc2)c(-c2ccccc2)[nH]1` [Example 30], the 50% effective dose (ED50) in assay [2] was 21 mg/kg.

For the compound `O=S(=O)(c1nc(-c2ccccc2)c(-c2ccccc2)[nH]1)C(F)(F)F` [Example 103, 4,5-diphenyl-2-trifluoromethylsulfonylimidazole], the ED50 in assay [2] was 0.03 mg/kg.

`CS(=O)(=O)c1nc(-c2ccc(Cl)cc2)c(-c2ccc(Cl)cc2)[nH]1` [Example 67]: in assay [2], the 50% effective dose (ED50) came to 2 mg/kg.

With `CS(=O)(=O)c1nc(-c2ccccc2)c(-c2ccc(F)cc2)[nH]1` [Example 141], the “percent (%) reduction in paw volume measured at the indicated dose” value in assay [2] (9 mg./kg.) was found to be 26%.

On to `COc1ccc(-c2nc(S(=O)(=O)C(F)(F)C(F)I)[nH]c2-c2ccc(OC)cc2)cc1` (centres unmarked) [Example 128], for which the ED50 in assay [2] was 3 mg/kg.

On to `FC(F)C(F)(F)Sc1nc(-c2ccc(Cl)cc2)c(-c2ccccc2)[nH]1` [Example 45], for which, in assay [2], the median effective dose (ED50) is 0.3 mg/kg.

For `O=S(=O)(c1nc(-c2ccccc2)c(-c2ccccc2)[nH]1)C(F)(F)CF` [Example 124], the ED50 in assay [2] was found to be 0.15 mg/kg.

Regarding `O=S(=O)(c1nc(-c2ccc(Cl)cc2)c(-c2ccc(C(F)(F)F)cc2)[nH]1)C(F)(F)C(F)F` [Example 90], the ED50 in assay [2] turned out to be 1.8 mg/kg.

`COc1ccc(-c2nc([S+](C)[O-])[nH]c2-c2ccc(OC)cc2)cc1` (centres unmarked) [Example 56]: the ED50 in assay [2] came out at 6.2 mg/kg.

As to `COc1ccc(-c2nc(S(=O)(=O)C(F)(F)C(F)Br)[nH]c2-c2ccc(OC)cc2)cc1` (centres unmarked) [Example 95], the ED50 in assay [1] came out at 2.8 mg/kg; in assay [2] it was 2.4 mg/kg.

Turning to `Cc1ccc(-c2nc(SC(F)(F)C(F)F)[nH]c2-c2ccc(C)cc2)cc1` [Example 43], in assay [2], the 50% effective dose (ED50) turned out to be 18 mg/kg.

`O=S(=O)(c1nc(-c2ccc(C(F)(F)F)cc2)c(-c2ccccc2)[nH]1)C(F)(F)C(F)F` [Example 89]: the ED50 in assay [2] was found to be 2.4 mg/kg.

Take `FC(F)C(F)(F)Sc1nc(-c2ccc(C(F)(F)F)cc2)c(-c2ccccc2)[nH]1` [Example 47]: the median effective dose (ED50) in assay [2] stood at 4.5 mg/kg.

For `COc1ccc(-c2nc(S(=O)(=O)C(F)(F)F)[nH]c2-c2ccc(F)cc2)cc1` [Example 130], the ED50 in assay [1] came to 0.1 mg/kg; in assay [2] it was 1.4 mg/kg.

For `COc1ccc(-c2nc(S(C)(=O)=O)[nH]c2-c2ccc(OC)cc2)cc1` [Example 57], the ED50 in assay [2] turned out to be 6.4 mg/kg.

As for `CSc1nc(-c2ccc(Cl)cc2)c(-c2ccc(F)cc2)[nH]1` [Example 33], the 50% effective dose (ED50) in assay [2] was 3.8 mg/kg.

For `CSc1nc(-c2ccc(F)cc2)c(-c2ccc(C(F)(F)F)cc2)[nH]1` [Example 35], the ED50 in assay [2] was determined as 17 mg/kg.

For the compound `CCOc1ccc(-c2[nH]c(S(C)(=O)=O)nc2-c2ccccc2)cc1` [Example 138], the “percent (%) reduction in paw volume measured at the indicated dose” value in assay [2] (50 mg./kg.) came out at 41%.

Regarding `[O-][S+](c1nc(-c2ccc(F)cc2)c(-c2ccc(F)cc2)[nH]1)C(F)(F)C(F)F` (centres unmarked) [Example 134], the median effective dose (ED50) in assay [2] came to 0.055 mg/kg.

Regarding `CS(=O)(=O)c1nc(-c2ccc(F)cc2)c(-c2ccc(C(F)(F)F)cc2)[nH]1` [Example 87], the ED50 in assay [2] amounted to 3.7 mg/kg.

As for `FC(F)(F)Sc1nc(-c2ccccc2)c(-c2ccc(Cl)c(Cl)c2)[nH]1` [Example 111], the median effective dose (ED50) in assay [2] was found to be 7 mg/kg.

`Fc1ccc(-c2nc(SC(F)(F)C(F)F)[nH]c2-c2ccccc2)cc1` [Example 49]: in assay [2], the 50% effective dose (ED50) amounted to 0.2 mg/kg.

With `O=S(=O)(c1nc(-c2ccccc2)c(-c2ccccc2)[nH]1)C(F)(F)C(F)F` [Example 60, 4,5-diphenyl-2-(1,1,2,2-tetrafluoroethylsulfonyl)imidazole], in assay [1], the ED50 came to 0.48 mg/kg and the peak time is given as 120 min. Further, the ED50 in assay [2] is 0.13 mg/kg.

With `O=S(=O)(c1nc(-c2ccc(Cl)cc2)c(-c2ccc(F)cc2)[nH]1)C(F)(F)C(F)F` [Example 80], the ED50 in assay [2] worked out at 0.09 mg/kg.

Take `COc1ccc(-c2nc(S(=O)(=O)C(F)(F)C(F)F)[nH]c2-c2ccc(OC)cc2)cc1` [Example 64, 4,5-bis(4-methoxyphenyl)-2-(1,1,2,2-tetrafluoroethylsulfonyl)imidazole]: in assay [1], the ED50 turned out to be 0.11 mg/kg and the peak time is on record as 120 min. For the same compound, the median effective dose (ED50) in assay [2] was 1.1 mg/kg.

On to `CSc1nc(-c2ccc(C(F)(F)F)cc2)c(-c2ccccc2)[nH]1` [Example 34], for which, in assay [2], the 50% effective dose (ED50) turned out to be 20 mg/kg.

For `C[S+]([O-])c1nc(-c2ccc(Cl)cc2)c(-c2ccc(Cl)cc2)[nH]1` (centres unmarked) [Example 59], the median effective dose (ED50) in assay [2] worked out at 2.3 mg/kg.
